Tests used:
[1] = target: T1, BcSDR (short-chain dehydrogenase reductase from B. cenocepacia J2315) (Burkholderia cenocepacia, UniProt B4EFS5); test: X-ray crystal structure, […] A; assay type: binding; details: pH 4.2, 290 K
T1 construct: gene BCAM2128; vector pBG1861; expressed in E. coli BL21(DE3) R3 Rosetta; homodimer
T1 sequence (B4EFS5 1-237): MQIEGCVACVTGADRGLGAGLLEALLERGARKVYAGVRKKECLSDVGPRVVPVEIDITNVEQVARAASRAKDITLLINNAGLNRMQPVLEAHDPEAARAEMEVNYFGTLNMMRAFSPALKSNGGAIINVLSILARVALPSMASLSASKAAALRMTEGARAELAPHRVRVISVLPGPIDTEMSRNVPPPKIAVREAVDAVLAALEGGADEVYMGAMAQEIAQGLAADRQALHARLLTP

[2] = target: the molecule itself; test: crystal structure; sitting-drop vapor diffusion, 290 K; 23.45 mg/ml protein, 5 mM NADP+; 40% PEG 300, 100 mM sodium phosphate dibasic/citric acid pH 4.2; space group P212121, two molecules per asymmetric unit; dimer assignment supported by PDBePISA

In the case of NC(=O)c1ccc[n+]([C@@H]2O[C@H](COP(=O)(O)OP(=O)(O)OC[C@H]3O[C@@H](n4cnc5c(N)ncnc54)[C@H](OP(=O)(O)O)[C@@H]3O)[C@@H](O)[C@H]2O)c1 [NADP^+], the “X-ray crystal structure, 1.40 A” value ([1]; 5 mM NADP+ in co-crystallization drop, coenzyme site, both chains) is reported as “The structure of BcSDR showed clear electron density for NADP^+ in the coenzyme-binding site”.

For O=C(O)c1ccccc1 [benzoic acid], the “X-ray crystal structure, 1.40 A” value ([1]; not added, co-purified ligand, active site, NADP+ bound) was “BcSDR co-crystallized with a molecule of benzoic acid bound in the active site”.

B1: short-chain dehydrogenase reductase (SDR) from Burkholderia cenocepacia J2315 (enzyme, Burkholderia cenocepacia (strain J2315))
chain: T1 sequence (B4EFS5 1-237)
notes: putative short-chain dehydrogenase reductase, Burkholderia cenocepacia J2315, UniProt B4EFS5; full-length gene stated to encode amino acids 1-237; Crystallised with NADP+ and a benzoic acid ligand; a phosphate ion lies at the dimer interface; also called BcSDR; His-BcSDR; source: Escherichia coli BL21(DE3) R3 Rosetta, purified (Ni2+ IMAC, SEC on Superdex 75); not shown: His6, N-terminal, kept
B1: binds [2].
